US11136317B2, “NADPH oxidase 4 inhibitors” (ACTELION PHARMACEUTICALS LTD, priority 2015, dated 2021)

How the values were obtained:
[1] = biological target: horseradish peroxidase / H2O2 (Armoracia rusticana, UniProt P00433); assay: Amplex Red counter screen assay (cells replaced by H2O2); assay type: biochemical; details: counter screen: H2O2-generating cells replaced by 1562.5 nM H2O2 in 1×PBS; read-out: IC50 Control
Method: In order to identify compounds that interfere with the activity assay either by inhibiting the activity of horseradish peroxidase or by directly interacting with the formed H2O2 a counter screen assay was established. This control assay is almost identical to the described Amplex Red activity assay with the only difference that the H2O2— generating cells are replaced by 1562.5 nM H2O2 in 1×PBS.

human NOX4 = biological target: T1, human NOX4 (Homo sapiens, UniProt Q9NPH5); assay: Amplex Red activity assay (cellular H2O2 formation in hNOX4 T-REx-293 cells); assay type: cell-based; details: tet-induced 24 h, extracellular H2O2 by Amplex Red, 60 min 25° C., geometric mean if determined several times
T1 construct: The full-length human NOX4 (NM_016931.3) transcript was cloned; expressed in transfected cells
T1 sequence (Q9NPH5 1-578): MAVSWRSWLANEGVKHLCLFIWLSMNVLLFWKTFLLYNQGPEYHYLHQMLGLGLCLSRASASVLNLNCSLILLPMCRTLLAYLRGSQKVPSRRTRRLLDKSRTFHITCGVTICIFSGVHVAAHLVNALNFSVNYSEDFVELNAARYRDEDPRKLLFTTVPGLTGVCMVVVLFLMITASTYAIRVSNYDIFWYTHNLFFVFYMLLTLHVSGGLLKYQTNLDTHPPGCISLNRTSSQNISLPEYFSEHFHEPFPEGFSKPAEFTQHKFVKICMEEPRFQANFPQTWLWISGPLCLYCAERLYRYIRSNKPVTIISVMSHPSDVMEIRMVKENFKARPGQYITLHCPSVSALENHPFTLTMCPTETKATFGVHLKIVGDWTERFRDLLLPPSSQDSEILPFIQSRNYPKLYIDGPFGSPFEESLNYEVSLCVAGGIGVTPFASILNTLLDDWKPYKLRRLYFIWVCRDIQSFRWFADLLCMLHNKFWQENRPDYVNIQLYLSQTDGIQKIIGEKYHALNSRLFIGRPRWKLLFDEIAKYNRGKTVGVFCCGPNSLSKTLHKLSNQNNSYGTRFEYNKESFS
T1 sequence (P13498 1-195 partner): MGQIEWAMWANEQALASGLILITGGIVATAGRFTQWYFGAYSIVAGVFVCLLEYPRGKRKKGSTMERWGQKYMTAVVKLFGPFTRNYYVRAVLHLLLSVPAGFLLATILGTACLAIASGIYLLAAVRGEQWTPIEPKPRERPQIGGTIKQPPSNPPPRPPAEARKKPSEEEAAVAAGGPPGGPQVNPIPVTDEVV
Procedure, shortened: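 Tet-induced (1 μg/mL, 24 h) HEK293 T-REx cells stably expressing full-length human NOX4, 20 000 cells/well, exposed to compounds (10 concentrations, 50 μM to 100 nM; 1.25% DMSO) for 60 min at 25°C. Extracellular H2O2 detected by Amplex Red resorufin fluorescence (ex 550/em 600 nm) versus vehicle; IC50 calculated.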

Sequence of horseradish peroxidase / H2O2 (P00433 31-338): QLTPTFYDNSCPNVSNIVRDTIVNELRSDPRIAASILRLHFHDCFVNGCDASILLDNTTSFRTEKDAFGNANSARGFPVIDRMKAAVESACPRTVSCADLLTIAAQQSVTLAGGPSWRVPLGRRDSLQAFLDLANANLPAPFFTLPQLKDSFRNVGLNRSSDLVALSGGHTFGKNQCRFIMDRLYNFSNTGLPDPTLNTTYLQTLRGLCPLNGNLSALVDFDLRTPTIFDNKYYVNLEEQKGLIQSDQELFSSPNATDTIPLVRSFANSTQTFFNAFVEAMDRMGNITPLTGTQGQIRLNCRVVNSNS

Row | Compound | IC50 [1] | IC50 (human NOX4)
1 | 2,3-Dihydro-benzofuran-5-carboxylic acid (2-dimethylamino-benzothiazol-5-yl)-amide [Example 86] | > 50000 nM | 2680 nM
2 | 2,3-Dihydro-benzofuran-5-carboxylic acid [2-(1-oxa-7-aza-spiro[3.5]non-7-yl)-benzooxazol-5-yl]-amide [Example 28] | > 50000 nM | 695 nM
3 | O=C(Nc1ccc2sc(N3CCC(O)CC3)nc2c1)c1ccc2c(c1)CCO2 [Example 110, 2,3-Dihydro-benzofuran-5-carboxylic acid [2-(4-hydroxy-piperidin-1-yl)-benzothiazol-5-yl]-amide] |  | 2030 nM
4 | O=C(Nc1ccc2c(c1)CCO2)c1ccc2oc(N3CCCCC3)nc2c1 [Example 76, 2-Piperidin-1-yl-benzooxazole-5-carboxylic acid (2,3-dihydro-benzofuran-5-yl)-amide] |  | 414 nM
5 | O=C(Nc1ccc2oc(N3CC4(CCO4)C3)nc2c1)c1ccc2c(c1)CCO2 [Example 21, 2,3-Dihydro-benzofuran-5-carboxylic acid [2-(1-oxa-6-aza-spiro[3.3]hept-6-yl)-benzooxazol-5-yl]-amide] |  | 1610 nM
6 | CN1CCN(c2nc3cc(NC(=O)c4ccc5c(c4)N(C)CCO5)ccc3o2)CC1 [Example 193, 4-Methyl-3,4-dihydro-2H-benzo[1,4]oxazine-6-carboxylic acid [2-(4-methyl-piperazin-1-yl)-benzooxazol-5-yl]-amide] |  | 4040 nM
7 | O=C(Nc1ccc2oc(N3CCC34CCOC4)nc2c1)c1ccc2c(c1)OCO2 (stereo not drawn) [Example 125, Benzo[1,3]dioxole-5-carboxylic acid [2-(6-oxa-1-aza-spiro[3.4]oct-1-yl)-benzooxazol-5-yl]-amide] |  | 772 nM
